Measurements reported in patent US8815931B2, “Oral formulations for tetrapyrrole derivatives” (Biolitec Pharma Marketing Ltd, priority 2009, dated 2014).
Where two headings read alike, the source gives them in different places.

Legend:
bacteria cells = test: Dark toxicity towards bacteria cells; assay type: cell-based; conditions: 10 μM, no light
[1] = cited from earlier work; for Formation of metabolites in the body: in vivo

Row | SMILES | Dark toxicity towards bacteria cells (bacteria cells) | Formation of metabolites in the body [1] | Formation of metabolites in the body ([1]; listed as Temoporfin) | Effect of lipoprotein levels and cholesterol metabolism on pharmacokinetics in plasma ([1]; plasma)
1 | CCCCCCc1c2nc(c(-c3ccc(C(=O)O)cc3)c3ccc([nH]3)c(-c3ccc(C(=O)O)cc3)c3nc(c(CCCCCC)c4ccc1[nH]4)C(O)C3O)C=C2 (stereo not shown) [BLC 6066, 2,3-Dihydro-2,3-dihydroxy-15,20-dihexyl-5,10-bis(4-carboxy-phenyl)porphyrin] | strong dark toxicity |  |  | 
2 | Oc1cccc(-c2c3nc(c(-c4cccc(O)c4)c4ccc([nH]4)c(-c4cccc(O)c4)c4nc(c(-c5cccc(O)c5)c5ccc2[nH]5)CC4)C=C3)c1 [mTHPC, m-tetrahydroxyphenylchlorin] |  | does not form metabolites | no known enzyme system in the mammalian body which can metabolize Temoporfin | neither lipoprotein levels nor cholesterol metabolism affects the pharmacokinetics
